Assay results published in ChEMBL document CHEMBL5244210, “Drug discovery in tuberculosis. New drug targets and antimycobacterial agents” (Eur J Med Chem, 2018).
In brackets after ≈: the same amount, converted by molar mass.

Legend:
[1] = test system: Mycobacterium tuberculosis; assay: Antibacterial activity against Mycobacterium tuberculosis assessed as bacterial growth inhibition; type: functional
[2] = target: T1, Enoyl-[acyl-carrier-protein] reductase [NADH] (Mycobacterium tuberculosis) (UniProt P9WGR1); assay: Inhibition of Mycobacterium tuberculosis InhA assessed as residence time
T1 sequence (whole entry): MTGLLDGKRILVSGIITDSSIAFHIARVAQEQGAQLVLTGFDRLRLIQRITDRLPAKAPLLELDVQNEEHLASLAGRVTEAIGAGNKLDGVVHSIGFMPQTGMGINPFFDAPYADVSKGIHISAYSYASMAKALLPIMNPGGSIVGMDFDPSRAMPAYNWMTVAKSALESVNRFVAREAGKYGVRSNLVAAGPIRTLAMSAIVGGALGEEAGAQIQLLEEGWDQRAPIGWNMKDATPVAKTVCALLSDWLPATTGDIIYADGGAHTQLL

[3] = test system: Mycobacterium tuberculosis; assay: Antibacterial activity against Mycobacterium tuberculosis H37Rv (ATCC 27294) assessed as bacterial growth inhibition incubated for 7 days by MABA assay; type: functional; conditions: 168 h, time 7 day
[4] = test system: Mycobacterium tuberculosis; assay: Antibacterial activity against wild type Mycobacterium tuberculosis H37Rv assessed as bacterial growth inhibition; type: functional, organism-based
[5] = test system: Mycobacterium tuberculosis; assay: Antibacterial activity against Mycobacterium tuberculosis H37Rv assessed as bacterial growth inhibition incubated for 6 days by resazurin staining based assay; type: functional; conditions: 144 h, time 6 day
[6] = test system: Mycobacterium tuberculosis; assay: Antibacterial activity against Mycobacterium tuberculosis H37Rv infected in mouse RAW264.7 cells assessed as bacterial growth inhibition; type: functional
[7] = Oral bioavailability in mouse; type: ADME, organism-based; conditions: in vivo
[8] = test system: Mycobacterium tuberculosis; assay: Antibacterial activity against Mycobacterium tuberculosis H37Rv infected in human THP-1 cells assessed as bacterial growth inhibition; type: functional
[9] = test system: Mycobacterium tuberculosis; assay: Antibacterial activity against wild type Mycobacterium tuberculosis H37Rv assessed as bacterial growth inhibition by alamar blue staining based assay; type: functional
[10] = test system: Mycobacterium tuberculosis; assay: Antibacterial activity against wild type Mycobacterium tuberculosis H37Rv infected in BALB/c mouse assessed as bacterial growth inhibition po administrated for 5 days a week via gavage for 4 weeks; type: functional; conditions: 672 h
[11] = test system: Mycobacterium tuberculosis; assay: Antibacterial activity against Mycobacterium tuberculosis assessed as bacterial growth inhibition by HTS assay; type: functional
[12] = test system: Mycobacterium tuberculosis; assay: Antibacterial activity against wild type Mycobacterium tuberculosis H37Rv assessed as bacterial growth inhibition incubated for 6 days by HTS assay; type: functional; conditions: 144 h, time 6 day
[13] = test system: Mycobacterium tuberculosis; assay: Antibacterial activity against Mycobacterium tuberculosis H37RV ATCC 27294 assessed as bacterial growth inhibition; type: functional
[14] = test system: Mycobacterium tuberculosis; assay: Antibacterial activity against Mycobacterium tuberculosis MmpL3 assessed as bacterial growth inhibition by HTS assay; type: functional
[15] = test system: Mycobacterium tuberculosis; assay: Antibacterial activity against Mycobacterium tuberculosis H37Rv (ATCC 27294) assessed as bacterial growth inhibition by MABA assay; type: functional
[16] = test system: Mycobacterium tuberculosis; assay: Antibacterial activity against Mycobacterium tuberculosis H37Rv MTCC 300 assessed as bacterial growth inhibition by alamar blue assay; type: functional
[17] = test system: Mycobacterium tuberculosis; assay: Antibacterial activity against Mycobacterium tuberculosis H37Rv infected in mouse RAW264.7 cells assessed as bacterial growth inhibition by REMA assay; type: functional
[18] = test system: Mycobacterium tuberculosis; assay: Antibacterial activity against Mycobacterium tuberculosis infected in mouse RAW264.7 cells assessed as bacterial growth inhibition by REMA assay; type: functional, organism-based

CCCCCCc1ccc(Oc2ccccc2C)c(O)c1
MIC [1]: 8.46 µM (≈ 2.41 µg/mL)
TIME [2]: 0.4 h

Cc1cn2c(C(=O)NCc3ccc(N4CCC(c5ccc(OC(F)(F)F)cc5)CC4)cc3)c(C)nc2s1
MIC [3]: 0.0009 µM (≈ 0.000476 µg/mL)

C[C@H]1COC2(CCN(c3nc(=O)c4cc(C(F)(F)F)cc(-n5cccc5)c4s3)CC2)O1
MIC [4]: 0.35 µM

CCCCCCc1ccc(Oc2ccccc2C#N)c(O)c1
MIC [1]: 11 µM (≈ 3.25 µg/mL)
TIME [2]: 1.33 h

c1cc2c(s1)CCOC21CCN(Cc2ccc3c(c2)OCCO3)CC1
MIC [5]: 0.3 µM (≈ 0.107 µg/mL)

Cc1c(OCC(F)(F)F)ccnc1C[S+]([O-])c1nc2ccccc2[nH]1 (stereo not drawn) [LANSOPRAZOLE]
IC50 [4]: 2200 nM

CCc1nc2ccc(Cl)cn2c1C(=O)NCc1ccc(N2CCC(c3ccc(OC(F)(F)F)cc3)CC2)cc1 [TELACEBEC]
MIC50 [4]: 0.0027 µM (≈ 0.0015 µg/mL)
MIC50 [6]: 0.00028 µM (≈ 0.000156 µg/mL)
bioavailability [7]: 90%

Cc1c(Cn2cc(C(=O)NCCO)c3ncccc32)ncnc1OC(F)F
MIC [8]: 0.78 µM (≈ 0.294 µg/mL)

Cc1cn2c(C(=O)NCc3ccc(C(F)(F)F)cc3)c(C)nc2s1
MIC [3]: 0.006 µM (≈ 0.00212 µg/mL)

COc1ccc(CNc2nc3cc(C(F)(F)F)ccc3nc2C(=O)O)cc1
MIC [4]: 3.1 µM

C[C@H]1COC2(CCN(c3nc(=S)c4cc(C(F)(F)F)cc([N+](=O)[O-])c4s3)CC2)O1
MIC [9]: 0.02 µM (≈ 0.00895 µg/mL)

CCOC(=O)NC(=O)c1ccsc1NC(=O)c1nc2ccccc2s1
MIC [1]: 0.027 µM (≈ 0.0101 µg/mL)

O=c1nc(N2CCN(CC3CCCCC3)CC2)sc2c([N+](=O)[O-])cc(C(F)(F)F)cc12 [MACOZINONE]
MIC [4]: 0.19 ng/mL
MIC [10]: 0.19 ng/mL (≈ 0.416 nM)

CCc1ccc([C@H]2C[C@@H](C(F)(F)F)n3ncc(C(=O)NCc4ccc5c(c4)OCO5)c3N2)cc1
MIC [5]: 0.16 µM (≈ 0.0756 µg/mL)

O=c1nc(N2CCN(CC3CCCCC3)CC2)sc2c(-n3cccc3)cc(C(F)(F)F)cc12
MIC [4]: 0.34 µM

Cc1c(CN2CCN(C)CC2)cc(-c2ccc(Cl)cc2)n1-c1ccc(Cl)cc1
MIC [11]: 3.62 µM (≈ 1.5 µg/mL)

CC1(C)CCC(NC(=O)c2cc3c(F)cc(F)cc3[nH]2)CC1
MIC [12]: 0.023 µM (≈ 0.00705 µg/mL)

FC(F)(F)Oc1ccc(Oc2ccc(CN3CCC4(CC3)OCCc3sccc34)cc2)cc1
MIC [5]: 0.06 µM (≈ 0.0285 µg/mL)

OB1c2ccccc2N=C(S)N1c1cccnc1
MIC [13]: 31.4 µM (≈ 8.01 µg/mL)

CCCn1cnc2cc(NCc3ccc(Cl)cc3Cl)ccc21
MIC [14]: 16 µM (≈ 5.35 µg/mL)

CCc1ccn2c(C(=O)NCc3ccc(C)cc3)c(C)nc2c1
MIC [15]: 0.004 µM (≈ 0.00123 µg/mL)

Cc1c(Cn2cc(C(=O)NCCO)c3ncccc32)ncnc1N(C)C
MIC [8]: 0.5 µM (≈ 0.177 µg/mL)

O=C(Nc1nnc(-c2ccc([N+](=O)[O-])cc2)s1)C1CC(=O)N(c2ccccc2)C1 (stereo not drawn)
MIC [16]: 61 µM (≈ 25 µg/mL)

CN(C)c1ccc(-c2nc3cc(F)c(-n4ccnc4)cc3n2Cc2ccccc2)cc1
MIC [14]: 30.3 µM (≈ 12.5 µg/mL)

CC(C)=CCC/C(C)=C/CNCCNC1C2CC3CC(C2)CC1C3 (stereo not drawn) [SQ109]
MIC [1]: 0.78 µM (≈ 0.258 µg/mL)

Cc1c(CN2CCOCC2)cc(-c2ccc(C(C)C)cc2)n1-c1ccc(F)cc1
MIC [11]: 0.12 µM (≈ 0.0471 µg/mL)

Cc1ccc(-c2nc3ccc(C)cn3c2CC(=O)N(C)C)cc1 [ZOLPIDEM]
MIC [15]: 10 µM (≈ 3.07 µg/mL)

Fc1cc2nc(Cc3ccc(Cl)cc3)[nH]c2cc1-n1ccnc1
MIC [14]: 76.5 µM (≈ 25 µg/mL)

O=C(C1CCN(c2nnc(-n3cccc3)s2)CC1)N1CCC(Cc2ccccc2)CC1
MIC [1]: 4 µM (≈ 1.74 µg/mL)

C[C@H]1COC2(CCN(c3nc(=O)c4cc(C(F)(F)F)cc([N+](=O)[O-])c4s3)CC2)O1 [BTZ-043]
MIC [4]: 0.00023 µM
MIC [10]: 1 ng/mL (≈ 2.32 nM)

Cc1c(OCC(F)(F)F)ccnc1CSc1nc2ccccc2[nH]1 [LANSOPRAZOLE SULFIDE]
IC50 [4]: 460 nM
MIC90 [17]: 1.13 µM (≈ 0.399 µg/mL)
IC50 [18]: 590 nM

Oc1cc(Cl)ccc1Oc1ccc(Cl)cc1Cl [TRICLOSAN]
MIC [1]: 138 µM (≈ 40 µg/mL)

CC1(C)CCC(NC(=O)c2cc3c(Cl)cc(Cl)cc3[nH]2)CC1
MIC [12]: 0.015 µM (≈ 0.00509 µg/mL)

CC[C@@H](CO)NCCN[C@@H](CC)CO [ETHAMBUTOL]
MIC [1]: 10 µM (≈ 2.04 µg/mL)

CCc1ccc([C@H]2C[C@@H](C(F)(F)F)n3ncc(C(=O)NCc4ccc(OC)cc4)c3N2)cc1
MIC [5]: 0.3 µM (≈ 0.138 µg/mL)
